# From patent publication US12252484B2, “Pyrazolopyridine compounds for the treatment of autoimmune disease” (Hoffmann-La Roche Inc., priority 2018, dated 2025)
# Molecular target: T1, human TLR9 (Homo sapiens, UniProt Q9NR96)
# T1 sequence (Q9NR96 26-1032): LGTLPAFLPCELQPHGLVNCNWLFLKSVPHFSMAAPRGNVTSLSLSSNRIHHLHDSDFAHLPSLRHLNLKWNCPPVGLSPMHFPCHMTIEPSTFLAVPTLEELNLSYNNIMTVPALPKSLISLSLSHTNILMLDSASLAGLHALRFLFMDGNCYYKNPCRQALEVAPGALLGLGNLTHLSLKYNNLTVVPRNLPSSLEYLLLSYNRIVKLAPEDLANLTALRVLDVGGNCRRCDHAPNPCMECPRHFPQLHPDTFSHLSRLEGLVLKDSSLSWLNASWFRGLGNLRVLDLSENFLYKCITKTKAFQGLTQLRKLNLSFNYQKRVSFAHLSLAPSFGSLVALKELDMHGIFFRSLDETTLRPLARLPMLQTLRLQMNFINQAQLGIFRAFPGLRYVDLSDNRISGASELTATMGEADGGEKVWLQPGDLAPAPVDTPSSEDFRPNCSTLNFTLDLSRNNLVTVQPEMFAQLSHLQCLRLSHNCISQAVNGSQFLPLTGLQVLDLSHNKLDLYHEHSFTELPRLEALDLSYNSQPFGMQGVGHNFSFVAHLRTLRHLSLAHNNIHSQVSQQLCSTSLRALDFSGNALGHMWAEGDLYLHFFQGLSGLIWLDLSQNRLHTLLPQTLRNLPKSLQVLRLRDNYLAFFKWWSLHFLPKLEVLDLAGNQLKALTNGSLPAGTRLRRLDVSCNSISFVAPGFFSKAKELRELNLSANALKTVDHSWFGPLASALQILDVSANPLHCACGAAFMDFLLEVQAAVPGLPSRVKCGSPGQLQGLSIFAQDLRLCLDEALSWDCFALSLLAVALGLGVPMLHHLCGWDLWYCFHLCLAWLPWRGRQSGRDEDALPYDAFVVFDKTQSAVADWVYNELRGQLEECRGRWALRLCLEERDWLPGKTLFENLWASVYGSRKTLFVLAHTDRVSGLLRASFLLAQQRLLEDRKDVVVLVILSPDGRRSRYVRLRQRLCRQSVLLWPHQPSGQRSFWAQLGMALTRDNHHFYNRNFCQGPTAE
# Assay: HEK293-Blue-hTLR-9 cells assay (SEAP reporter, ODN2006 stimulation)
# Assay type: cell-based
# Settings: HEK293-Blue-hTLR-9 cells, ODN2006 ligand, 20 hrs incubation; read-out: TLR9 IC50
# Procedure: The following tests were carried out in order to determine the activity of the compounds of formula (I) in HEK293-Blue-hTLR-7/8/9 cells assay.
# HEK293-Blue-hTLR-9 Cells Assay:
# A stable HEK293-Blue-hTLR-9 cell line was purchased from InvivoGen (Cat. #: hkb-htlr9, San Diego, California, USA). These cells were originally designed for studying the stimulation of human TLR9 by monitoring the activation of NF-κB. A SEAP (secreted embryonic alkaline phosphatase) reporter gene was placed under the control of the IFN-β minimal promoter fused to five NF-κB and AP-1-binding sites. The SEAP was induced by activating NF-κB and AP-1 via stimulating HEK-Blue hTLR9 cells with TLR9 ligands. Therefore the reporter expression was declined by TLR9 antagonist under the stimulation of a ligand, such as ODN2006 (Cat. #: tlrl-2006-1, Invivogen, San Diego, California, USA), for incubation of 20 hrs. The cell culture supernatant SEAP reporter activity was determined using QUANTI-Blue™ kit (Cat. #: rep-qb1, Invivogen, San Diego, California, USA) at a wavelength of 640 nm, a detection medium that turns purple or blue in the presence of alkaline phosphatase.
# HEK293-Blue-hTLR9 cells were incubated at a density of 250,000˜450,000 cells/mL in a volume of 170 μL in a 96-well plate in Dulbecco's Modified Eagle's medium (DMEM) containing 4.5 g/L glucose, 50 U/mL penicillin, […], 2 mM L-glutamine, 10% (v/v) heat-inactivated fetal bovine serum with addition of 20 μL test compound in a serial dilution in the presence of final DMSO at 1% and 10 μL of 20 uM ODN2006 in above DMEM, perform incubation under 37° C. in a CO2 incubator for 20 hrs. Then 20 μL of the supernatant from each well was incubated with 180 μL Quanti-blue substrate solution at 37° C. for 2 hrs and the absorbance was read at 620˜655 nm using a spectrophotometer. The signalling pathway that TLR9 activation leads to downstream NF-κB activation has been widely accepted, and therefore similar reporter assay was modified for evaluating TLR9 antagonist.
row,SMILES,IC50
1,"C[C@@H]1CN(c2ccc(C#N)n3nccc23)C[C@H](C(=O)NC2CCN(C)CC2)O1 [Example 1, (2R,6R)-4-(7-cyanopyrazolo[1,5-a]pyridin-4-yl)-6-methyl-N-(1-methyl-4-piperidyl)morpholine-2-carboxamide]",15 µM
2,"C[C@@H]1CN(c2ccc(C#N)n3nccc23)C[C@H](C(=O)N[C@H]2CNC[C@H]2F)O1 [Example 2, (2R,6R)-4-(7-cyanopyrazolo[1,5-a]pyridin-4-yl)-N-[(3S,4R)-4-fluoropyrrolidin-3-yl]-6-methyl-morpholine-2-carboxamide]",> 100 µM
3,"C[C@@H]1CN(c2ccc(C#N)n3nccc23)C[C@H](C(=O)NC2CC3(CNC3)C2)O1 [Example 3, (2R,6R)-N-(2-azaspiro[3.3]heptan-6-yl)-4-(7-cyanopyrazolo[1,5-a]pyridin-4-yl)-6-methyl-morpholine-2-carboxamide]",36 µM
4,"C[C@@H]1CN(c2ccc(C#N)n3nccc23)C[C@H](C(=O)NC2CCOCC2)O1 [Example 4, (2R,6R)-4-(7-cyanopyrazolo[1,5-a]pyridin-4-yl)-6-methyl-N-tetrahydropyran-4-yl-morpholine-2-carboxamide]",> 100 µM
5,"C[C@@H]1CN(c2ccc(C#N)n3nccc23)C[C@H](C(=O)NC2CNC[C@H]2F)O1 (stereo partly drawn) [Example 5, Cis-(2R,6R)-4-(7-cyanopyrazolo[1,5-a]pyridin-4-yl)-6-methyl-N-(4-fluoropyrrolidin-3-yl) morpholine-2-carboxamide]",77 µM
6,"C[C@@H]1CN(c2ccc(C#N)n3nccc23)C[C@H](C(=O)NC2CCCNCC2)O1 (stereo partly drawn) [Example 6, (2R,6R)-N-(azepan-4-yl)-4-(7-cyanopyrazolo[1,5-a]pyridin-4-yl)-6-methyl-morpholine-2-carboxamide]",4.8 µM
7,"C[C@@H]1CN(c2ccc(C#N)n3nccc23)C[C@H](C(=O)NCC2CN(C)CCO2)O1 (stereo partly drawn) [Example 7, (2R,6R)-4-(7-cyanopyrazolo[1,5-a]pyridin-4-yl)-6-methyl-N-[(4-methylmorpholin-2-yl)methyl]morpholine-2-carboxamide]",58 µM
8,"C[C@@H]1CN(c2ccc(C#N)n3nccc23)C[C@H](C(=O)N2CC(N)C2)O1 [Example 8, 4-[(2R,6R)-2-(3-aminoazetidine-1-carbonyl)-6-methyl-morpholin-4-yl]pyrazolo[1,5a]pyridine-7-carbonitrile]",70 µM
9,"COCCNC(=O)[C@H]1CN(c2ccc(C#N)n3nccc23)C[C@@H](C)O1 [Example 9, (2R,6R)-4-(7-cyanopyrazolo[1,5-a]pyridin-4-yl)-N-(2-methoxyethyl)-6-methyl-morpholine-2-carboxamide]",> 100 µM
10,"C[C@@H]1CN(c2ccc(C#N)n3nccc23)C[C@H](C(=O)NC23CC4CC(CC(C4)C2)C3)O1 [Example 12, (2R,6R)-N-(1-adamantyl)-4-(7-cyanopyrazolo[1,5-a]pyridin-4-yl)-6-methyl-morpholine-2-carboxamide]",42 µM
11,"CCC(O)CNC(=O)[C@H]1CN(c2ccc(C#N)n3nccc23)C[C@@H](C)O1 (stereo partly drawn) [Example 13, (2R,6R)-4-(7-cyanopyrazolo[1,5-a]pyridin-4-yl)-N-(2-hydroxybutyl)-6-methyl-morpholine-2-carboxamide]",> 100 µM
12,"C[C@@H]1CN(c2ccc(C#N)n3nccc23)C[C@H](C(=O)NC2CC3CCCC(C2)N3)O1 (stereo partly drawn) [Example 14, (2R,6R)-N-(9-azabicyclo[3.3.1]nonan-3-yl)-4-(7-cyanopyrazolo[1,5-a]pyridin-4-yl)-6-methyl-morpholine-2-carboxamide]",1.6 µM
13,"C[C@@H]1CN(c2ccc(C#N)n3nccc23)C[C@H](C(=O)NC23CC(CO)(C2)C3)O1 [Example 15, (2R,6R)-4-(7-cyanopyrazolo[1,5-a]pyridin-4-yl)-N-[3-(hydroxymethyl)-1-bicyclo[1.1.1]pentanyl]-6-methyl-morpholine-2-carboxamide]",> 100 µM
14,"C[C@@H]1CN(c2ccc(C#N)n3nccc23)C[C@H](C(=O)NC(C)(C)CO)O1 [Example 16, (2R,6R)-4-(7-cyanopyrazolo[1,5-a]pyridin-4-yl)-N-(2-hydroxy-1,1-dimethyl-ethyl)-6-methyl-morpholine-2-carboxamide]",> 100 µM
15,"CCC(C)(C)NC(=O)[C@H]1CN(c2ccc(C#N)n3nccc23)C[C@@H](C)O1 [Example 17, (2R,6R)-4-(7-cyanopyrazolo[1,5-a]pyridin-4-yl)-N-(1,1-dimethylpropyl)-6-methyl-morpholine-2-carboxamide]",33 µM
16,"C[C@@H]1CN(c2ccc(C#N)n3nccc23)C[C@H](C(=O)NCC2CNCC2(F)F)O1 (stereo partly drawn) [Example 18, (2R,6R)-4-(7-cyanopyrazolo[1,5-a]pyridin-4-yl)-N-[(4,4-difluoropyrrolidin-3-yl)methyl]-6-methyl-morpholine-2-carboxamide]",> 100 µM
17,"C[C@@H]1CN(c2ccc(C#N)n3nccc23)C[C@H](C(=O)NC2(C)CCNCC2)O1 [Example 19, (2R,6R)-4-(7-cyanopyrazolo[1,5-a]pyridin-4-yl)-6-methyl-N-(4-methyl-4-piperidyl)morpholine-2-carboxamide]",16 µM
18,"C[C@@H]1CN(c2ccc(C#N)n3nccc23)C[C@H](C(=O)N[C@H]2CC[C@@H](O)CC2)O1 [Example 20, Cis-(2R,6R)-4-(7-cyanopyrazolo[1,5-a]pyridin-4-yl)-N-(4-hydroxycyclohexyl)-6-methyl-morpholine-2-carboxamide]",71 µM
19,"C[C@@H]1CN(c2ccc(C#N)n3nccc23)C[C@H](C(=O)N[C@H]2CC[C@H](O)CC2)O1 [Example 21, Trans-(2R,6R)-4-(7-cyanopyrazolo[1,5-a]pyridin-4-yl)-N-(4-hydroxycyclohexyl)-6-methyl-morpholine-2-carboxamide]",> 100 µM
20,"C[C@@H]1CN(c2ccc(C#N)n3nccc23)C[C@H](C(=O)NC2CC3COCC(C2)N3)O1 (stereo partly drawn) [Example 22, Endo-(2R,6R)-4-(7-cyanopyrazolo[1,5-a]pyridin-4-yl)-6-methyl-N-[3-oxa-9-azabicyclo[3.3.1]nonan-7-yl]morpholine-2-carboxamide]",18 µM
21,"C[C@@H]1CN(c2ccc(C#N)n3nccc23)C[C@H](C(=O)NC2CC3CCC(C2)N3)O1 (stereo partly drawn) [Example 23, Exo-(2R,6R)-N-[8-azabicyclo[3.2.1]octan-3-yl]-4-(7-cyanopyrazolo[1,5-a]pyridin-4-yl)-6-methyl-morpholine-2-carboxamide]",> 100 µM
22,"C[C@@H]1CN(c2ccc(C#N)n3nccc23)C[C@H](C(=O)NC2CCNCC2)O1 [Example 24, (2R,6R)-4-(7-cyanopyrazolo[1,5-a]pyridin-4-yl)-6-methyl-N-(4-piperidyl)morpholine-2-carboxamide]",13 µM
23,"C[C@@H]1CN(c2ccc(C#N)n3nccc23)C[C@H](C(=O)NC2CCNC2)O1 (stereo partly drawn) [Example 25, (2R,6R)-4-(7-cyanopyrazolo[1,5-a]pyridin-4-yl)-6-methyl-N-pyrrolidin-3-yl-morpholine-2-carboxamide]",25 µM
24,"C[C@@H]1CN(c2ccc(C#N)n3nccc23)C[C@H](C(=O)NC2C3CCC2CNC3)O1 (stereo partly drawn) [Example 26, (2R,6R)-N-(3-azabicyclo[3.2.1]octan-8-yl)-4-(7-cyanopyrazolo[1,5-a]pyridin-4-yl)-6-methyl-morpholine-2-carboxamide]",13 µM
